Test results published in the supplement of paper PMC10307832.

What was measured:
Test in all cases: relative viability (nuclei count vs DMSO), 5 days (fraction); higher = more cells survive
Vatalanib = compound: Clc1ccc(Nc2nnc(Cc3ccncc3)c3ccccc23)cc1 [Vatalanib]
Procedure, shortened: (§1)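 In 1536-well plates, lung cancer cell lines rested overnight at 37 °C before five library-drug doses (not always all listed), √10 apart, were pinned onto vehicle-anchored plates. Nuclei were counted with MetaXpress from 4× Hoechst images taken after 5 days without medium change. Viability compares treated-well with vehicle-well nuclei as a median over plates, and plates needed control CV below 25% plus at least one doubling to pass.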

AZ23 = compound: CC(C)Oc1cc(Nc2nc(N[C@@H](C)c3ccc(F)cn3)ncc2Cl)n[nH]1 [AZ23]
Procedure, shortened: as §1

HG-5-88-01 = compound: CC(C)S(=O)(=O)C1=CC=CC=C1NC2=NC(=NC(=C2Cl)N)NC3=C(C=C(C=C3)N4CCC(CC4)C(=O)N)OC [HG-5-88-01]
Procedure, shortened: as §1

[1] = compound: C[C@@H]1CN(CC(=O)Nc2ccc3c(c2)Cc2cccc(-c4cc(=O)cc(N5CCOCC5)o4)c2S3)C[C@H](C)O1
Procedure, shortened: as §1

Embelin = compound: CCCCCCCCCCCC1=C(O)C(=O)C=C(O)C1=O [Embelin]
Procedure, shortened: as §1

Row | Cell Line | relative viability (Vatalanib; 0.04 µM) | relative viability (Vatalanib; 0.1265 µM) | relative viability (Vatalanib; 0.4 µM) | relative viability (Vatalanib; 1.265 µM) | relative viability (Vatalanib; 4 µM) | relative viability (AZ23; 0.01 µM) | relative viability (AZ23; 0.03162 µM) | relative viability (AZ23; 0.3162 µM) | relative viability (HG-5-88-01; 0.04 µM) | relative viability (HG-5-88-01; 0.1265 µM) | relative viability (HG-5-88-01; 0.4 µM) | relative viability (HG-5-88-01; 1.265 µM) | relative viability (HG-5-88-01; 4 µM) | relative viability ([1]; 0.04 µM) | relative viability ([1]; 0.1265 µM) | relative viability ([1]; 0.4 µM) | relative viability ([1]; 4 µM) | relative viability (Embelin; 0.08 µM) | relative viability (Embelin; 0.8 µM) | relative viability (Embelin; 2.53 µM) | relative viability (Embelin; 8 µM)
1 | NCI-H2085 | 0.997 | 0.953 | 0.975 | 0.92 | 0.931 | 1.11 | 1.05 | 0.961 | 1.05 | 1.07 | 1.02 | 0.972 | 1.01 | 0.957 | 1.02 | 0.977 | 0.834 | 0.985 | 1.05 | 1.07 | 0.992
2 | NCI-H2087 | 1.18 | 0.928 | 1.08 | 0.889 | 1.09 | 1.24 | 1.21 | 0.963 | 1.16 | 0.989 | 0.916 | 1.07 | 0.746 | 1.15 | 0.912 | 1.1 | 0.948 | 1.01 | 1.22 | 1.27 | 1.05
3 | NCI-H2126 | 0.983 | 1 | 1.03 | 0.945 | 0.925 | 1.05 | 1.02 | 0.991 | 0.905 | 0.989 | 0.923 | 0.904 | 0.88 | 1.01 | 0.979 | 1 | 0.909 | 1.03 | 0.991 | 1.03 | 0.934
4 | NCI-H2170 | 1.03 | 0.979 | 0.997 | 0.987 | 0.944 | 1.07 | 0.977 | 1.2 | 0.977 | 1.02 | 0.899 | 0.706 | 1.01 | 0.989 | 0.997 | 0.985 | 0.888 | 0.981 | 1.01 | 1.09 | 0.919
5 | NCI-H2228 | 0.988 | 0.902 | 1.15 | 1.09 | 0.975 | 1.16 | 1.1 | 0.868 | 0.725 | 0.588 | 0.371 | 0.3 | 0.345 | 0.941 | 0.937 | 0.909 | 0.625 | 1 | 0.946 | 1.08 | 1.02
6 | NCI-H2342 | 1 | 0.913 | 0.97 | 1.03 | 0.975 | 0.993 | 0.942 | 1.02 | 0.759 | 1.1 | 0.93 | 0.728 | 1.05 | 1.01 | 0.847 | 0.83 | 0.786 | 0.894 | 1.02 | 1.15 | 0.898
7 | NCI-H2347 | 1.09 | 1.01 | 1.02 | 0.961 | 0.938 | 1.12 | 1.16 | 0.997 | 1.04 | 1.02 | 1.07 | 0.94 | 1.01 | 1.1 | 1.08 | 1.08 | 0.981 | 0.987 | 1.09 | 1.09 | 1.03
8 | NCI-H2405 | 1.01 | 0.919 | 0.732 | 0.919 | 0.946 | 0.982 | 1.09 | 0.911 | 1.03 | 1 | 0.925 | 0.802 | 0.901 | 1.09 | 1.05 | 0.972 | 0.983 | 1.09 | 1.09 | 0.993 | 0.921
9 | NCI-H3122 | 1.01 | 0.975 | 1.02 | 0.959 | 0.98 | 1.12 | 1.13 | 1.06 | 0.865 | 0.585 | 0.254 | 0.236 | 0.169 | 1.05 | 0.993 | 1.03 | 0.883 | 0.986 | 1.05 | 1.01 | 1.07
10 | PC-3 [JPC-3] | 0.974 | 0.984 | 1 | 1.01 | 0.988 | 1.08 | 1.12 | 1.04 | 1.08 | 1.05 | 0.998 | 0.749 | 0.477 | 0.976 | 1.01 | 1.03 | 0.986 | 1.08 | 1.05 | 1.11 | 0.974
11 | PC-14 | 1.01 | 0.921 | 0.905 | 0.904 | 0.958 | 0.748 | 1.22 | 1.08 | 1.05 | 0.985 | 0.901 | 0.735 | 0.38 | 1 | 0.943 | 1.02 | 0.863 | 0.997 | 1.15 | 1 | 1.06
12 | RERF-LC-KJ | 1.02 | 0.961 | 1.04 | 0.857 | 0.857 | 1.08 | 0.987 | 1.03 | 1.05 | 0.992 | 0.975 | 0.865 | 0.724 | 1.01 | 1.01 | 0.962 | 0.872 | 0.978 | 1.01 | 1.07 | 1
13 | SK-LU-1 | 1.09 | 0.993 | 1.14 | 1.04 | 1.05 | – | 1.14 | 1.08 | 0.982 | 1.04 | 0.998 | 0.876 | 0.708 | 1.04 | 1.04 | 1.1 | 0.853 | 1.13 | 1.19 | 1.26 | 0.928
14 | SK-MES-1 | 1.03 | 0.913 | 1.09 | 0.971 | 0.893 | 0.745 | 1.08 | 1.08 | 0.983 | 0.962 | 0.966 | 0.924 | 1.05 | 1.09 | 1.05 | 0.923 | 0.8 | 1.02 | 1.07 | 1.13 | 0.954
15 | SW 900 | 0.698 | 0.807 | 1.07 | 0.737 | 1.03 | 0.764 | 0.635 | 0.883 | 0.901 | 0.881 | 0.86 | 0.888 | 0.497 | 0.854 | 0.899 | 0.954 | 0.708 | 0.866 | 0.954 | 1.01 | 0.581
16 | SW 1573 | 0.957 | 0.995 | 1.19 | 0.868 | 1.03 | 1.15 | 1.16 | 0.881 | 0.962 | 0.978 | 0.969 | 0.834 | 0.864 | 0.992 | 1.04 | 0.922 | 1.06 | 0.972 | 1.33 | 1.16 | 1.02
17 | UMC-11 | 1 | 0.953 | 0.954 | 0.984 | 1.03 | 0.954 | 1.01 | 0.968 | 0.887 | 1.02 | 0.843 | 0.943 | 0.807 | 0.969 | 0.938 | 1.01 | 0.865 | 0.987 | 1.07 | 1.02 | 0.974
